Several values for one entry are separate records, joined by “and”; a condition that tells them apart may be missing. Equal values may be shown once.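 These data come from cells grown in 96-well plates and exposed to compound for 48 hours at five concentrations. At the GI50, growth is halved. TGI: concentration producing complete growth inhibition.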 Some results are limits rather than exact numbers.

Test in all cases: DTP human tumour cell line panel, 48 h
Assay [1] deals with SF-539 CNS.
For assay [2], the system named is MALME-3M melanoma.
Assay [3] has as its system A498 renal.
For assay [4], the system named is M14 melanoma.
For assay [5], the system named is SNB-75 CNS.
Assay [6] deals with MDA-MB-435.
Assay [7] concerns HOP-62 NSCLC.
The subject of assay [8] is UACC-62 melanoma.
Assay [9] deals with MOLT-4 leukemia.
Assay [10] has as its system SNB-19 CNS.

As for `COc1ccccc1NC(=O)CC(=O)n1nc(C)c(N=Nc2ccccc2Cl)c1C`, the TGI in assay [1] was greater than 100 µM; in assay [2] it was greater than 100 µM; in assay [3], greater than 100 µM; in assay [4], greater than 100 µM; in assay [5], 57.2 µM; in assay [6], greater than 100 µM. Moreover, the TGI in assay [7], in [8], in assay [9] and in assay [10] was greater than 100 µM throughout.

Take `Cc1ccc(-c2nc(/C=N/Nc3cc(C)nc4ccc(Br)cc34)c(C)o2)cc1`: the GI50 in assay [1] is 1.72 µM; in assay [2] it was 2.05 µM; in assay [3], 3.73 µM; in [4] it was 1.89 µM; in assay [5], 1.74 µM; in assay [6], 1.72 µM. The GI50 is 1.87 µM in assay [7], 1.73 µM in [8], 2.32 µM in assay [9] and 1.86 µM in assay [10]. Further, the TGI stood at 3.18 µM in [1]; 3.62 µM in assay [2]; 20.4 µM in assay [3]; 3.63 µM in assay [4]; 3.39 µM in [5]; 3.12 µM in assay [6]. In addition, the total growth inhibition concentration (TGI) in [7] was found to be 3.55 µM; in [8], 3.36 µM; in [9], 5.13 µM; in assay [10], 3.48 µM.

Turning to `CCc1cccc(NC(=O)Nc2ccc(Oc3ccc4nc(NC(=O)OC)[nH]c4c3)cc2)c1`, the GI50 in assay [1] is 5.08 µM; in [2], 2.14 µM; in [3] it was 3.2 µM; in assay [4], 3.13 µM; in assay [5] it was 2.53 µM; in [6] it was 0.0716 µM. For the same molecule, the GI50 was 3.1 µM in [7], 1.93 µM in assay [8], 10.4 µM in assay [9] and 10.1 µM in [10]. The total growth inhibition concentration (TGI) is greater than 25 µM in [1]; 11.1 µM in [2]; 17.8 µM in assay [3]; 12.6 µM in [4]; greater than 14.1 µM in [5]; 0.643 µM in assay [6]. In addition, the TGI in assay [7] is 11 µM; in [8] it was 10.1 µM; in [9], greater than 25 µM; in assay [10], greater than 25 µM.

`O=C(Nc1cn[nH]c1-c1nc2ccc(CN3CCOCC3)cc2[nH]1)NC1CC1`: the concentration for 50% growth inhibition (GI50) in [1] was 0.262 µM and 0.688 µM; in [2], 3.05 µM and > 10 µM; in [3] it was 0.373 µM; in assay [4], 1.52 µM and 4.84 µM; in assay [5] it was 0.0327 µM and 0.214 µM; in [6], 1.43 µM and 6.77 µM. Moreover, the GI50 is 0.721 µM and 1.93 µM in assay [7]; 1.37 µM and 3.81 µM in assay [8]; 1.87 µM and 2.52 µM in [9]; 1.16 µM and 2.62 µM in assay [10]. The TGI in [1] is 1.35 µM and 3.7 µM; in [2], 8.32 µM and > 10 µM; in assay [3], 3.91 µM; in assay [4] it was 4.34 µM and > 10 µM; in assay [5] it was 0.367 µM and 1.62 µM; in assay [6], 5 µM and > 10 µM. For the same molecule, the TGI in assay [7] was 4.01 µM and > 10 µM; in assay [8], 3.5 µM and > 10 µM; in assay [9], 5.4 µM and > 10 µM; in [10] it was 11.3 µM and > 10 µM.

As for `O=c1oc2ccc(Cl)cc2c(=O)n1-c1ccc(F)cc1F`, the GI50 in assay [1] is 1.68 µM; in assay [2] it was 1.11 µM; in assay [3], 0.372 µM; in assay [4] it was 0.558 µM; in [5], 1.32 µM; in [6] it was 1.64 µM. Moreover, the GI50 in assay [7] was 1.49 µM; in [8], 0.608 µM; in assay [9], 2.33 µM; in [10], 2.27 µM. For the same molecule, the TGI in [1] was found to be 8.67 µM; in [2] it was 5.38 µM; in assay [3] it was 1.68 µM; in assay [4], 5.03 µM; in assay [5] it was 4.2 µM; in assay [6] it was 7.73 µM. Moreover, the total growth inhibition concentration (TGI) was 4.84 µM in assay [7], 3.84 µM in assay [8], 5.59 µM in assay [9] and greater than 100 µM in [10].

In the case of `CC[C@]12C=CCN3CC[C@@]4(c5ccc(OC)cc5N(C)[C@H]4[C@@](O)(C(=O)OC)[C@@H]1OC(=O)CCC(=O)O[C@H]1CC[C@H]4[C@@H]5CC[C@H]6CC(=O)CC[C@]6(C)[C@H]5CC[C@]14C)[C@@H]32`, the GI50 in [1] is 3.89 µM; in assay [2] it was 2.98 µM; in assay [3], 4.13 µM; in assay [4], 2 µM; in [5] it was 3.3 µM; in assay [6] it was 2.89 µM. Besides, the GI50 is 4.83 µM in assay [7], 3.25 µM in assay [8], 2.59 µM in assay [9] and 4.85 µM in [10]. For the same molecule, the total growth inhibition concentration (TGI) in assay [1] is greater than 100 µM; in assay [2] it was 57.7 µM; in assay [3], 30.8 µM; in [4], 22.2 µM; in assay [5] it was greater than 100 µM; in assay [6] it was greater than 100 µM. Further, the TGI in assay [7], in assay [8], in [9] and in assay [10] was greater than 100 µM each time.

In the case of `Cc1ccc2[nH]c(O)c(N=Nc3ccccc3[N+](=O)[O-])c2c1`, the TGI is 4.78 µM in assay [1]; 7.9 µM in assay [2]; 34.6 µM in assay [3]; greater than 100 µM in assay [4]; greater than 50 µM in assay [5]; greater than 100 µM in [6]. Further, the TGI in assay [7] was 10.7 µM; in [8], greater than 100 µM; in assay [9] it was greater than 100 µM; in [10] it was greater than 81.1 µM.

With `COC(=O)C1=C(C(=O)ON)[C@@H]2C=C[C@@]1([C@@H](Cc1ccccc1)Nc1ccccc1)O2`, the GI50 was 15.5 µM in assay [1]; 1.69 µM in assay [2]; 12.3 µM in [3]; 1.87 µM in assay [4]; 12.4 µM in assay [5]; 4.33 µM in [6]. Also, the GI50 in assay [7] is 16.9 µM; in [8] it was 6.37 µM; in [9], 2.86 µM; in assay [10] it was 16 µM. The total growth inhibition concentration (TGI) was 29 µM in [1]; 3.2 µM in [2]; 24.8 µM in [3]; 3.89 µM in assay [4]; 24.9 µM in assay [5]; 16.5 µM in assay [6]. For the same molecule, the TGI was 32.4 µM in assay [7], 19.3 µM in assay [8], 7.71 µM in assay [9] and 29.5 µM in assay [10].

The values above are taken from PubChem BioAssay (NCI).
